The values that follow come from patent publication EP4650351A1, “INHIBITOR OF COMPLEMENT FACTOR B” (Nanjing Chia Tai Tianqing Pharmaceutical Co., Ltd., priority 2023, dated 2024).

The target of the experiment is T1, human complement factor B (Homo sapiens, UniProt P00751).
T1 construct: purchased ComplementTech A135
T1 sequence (P00751 26-764): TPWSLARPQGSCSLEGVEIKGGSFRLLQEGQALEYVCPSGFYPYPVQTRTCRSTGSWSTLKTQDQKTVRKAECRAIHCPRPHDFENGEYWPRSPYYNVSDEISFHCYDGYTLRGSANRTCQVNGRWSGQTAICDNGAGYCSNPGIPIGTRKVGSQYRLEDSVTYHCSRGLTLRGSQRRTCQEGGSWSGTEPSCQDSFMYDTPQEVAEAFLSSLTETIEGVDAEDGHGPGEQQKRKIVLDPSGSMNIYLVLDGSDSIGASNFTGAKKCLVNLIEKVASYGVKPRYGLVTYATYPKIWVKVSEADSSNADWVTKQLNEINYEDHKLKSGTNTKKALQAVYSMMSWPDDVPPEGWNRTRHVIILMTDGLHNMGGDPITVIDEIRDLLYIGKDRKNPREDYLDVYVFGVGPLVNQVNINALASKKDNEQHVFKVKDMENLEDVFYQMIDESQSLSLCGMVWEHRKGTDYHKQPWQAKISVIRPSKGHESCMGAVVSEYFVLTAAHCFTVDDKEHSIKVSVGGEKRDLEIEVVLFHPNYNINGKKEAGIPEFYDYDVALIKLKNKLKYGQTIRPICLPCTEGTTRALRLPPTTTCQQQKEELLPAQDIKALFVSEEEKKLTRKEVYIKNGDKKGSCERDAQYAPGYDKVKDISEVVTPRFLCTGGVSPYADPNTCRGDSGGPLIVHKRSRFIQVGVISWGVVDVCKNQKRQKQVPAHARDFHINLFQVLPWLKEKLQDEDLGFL
The experiment is described as follows: TR-FRET competitive binding assay of human complement factor B (Cy5-labeled probe). As to conditions: inhibitory activity against complement factor B; biotin-labeled factor B 25 nM, Cy5 probe 75 nM, 4 °C. A general note: In TR-FRET formats the signal depends on donor and acceptor labels being close together.
Consider `COc1cc(C)c2[nH]ccc2c1CN1CCN(C2COC2)CC1c1ccc(C(=O)O)cc1` (racemic) [Example 3, (±)-4-(1-((5-methoxy-7-methyl-1H-indol-4-yl)methyl)-4-(oxetan-3-yl)piperazin-2-yl)benzoic acid], for which the IC50 (commonly the midpoint of a concentration-inhibition curve) was > 1000 nM.

Regarding `COc1cc(C)c2[nH]ccc2c1CN1CCN(CC2CC2(F)F)CC1c1ccc(C(=O)O)cc1` (racemic) [Example 5, (±)4-(4-((2,2-difluorocyclopropyl)methyl)-1-((5-methoxy-7-methyl-1H-indol-4-yl)methyl)piperazin-2-yl)benzoic acid], the IC50 is 202 nM.

For `Cc1cc(OC(F)(F)F)c(O[C@@H]2CCN(CC(F)(F)F)C[C@H]2c2ccc(C(=O)O)cc2)c2cc[nH]c12` [Example 31, 4-((3R,4R)-4-((7-methyl-5-(trifluoromethoxy)-1H-indol-4-yl)oxy)-1-(2,2,2-trifluoroethyl)piperidin-3-yl)benzoic acid], the IC50 was determined as 427 nM.

As to `CCOC1CCC(Sc2c(OC)cc(C)c3[nH]ccc23)C(c2ccc(C(=O)O)cc2)C1` (single isomer, unassigned) [Example 19a-4], the IC50 was found to be 257 nM.

The compound `[2H]C([2H])([2H])Oc1cc(C)c2[nH]ccc2c1O[C@@H]1CCN(CC(F)(F)F)C[C@H]1c1ccc(C(=O)O)cc1` [Example 27, 4-((3R,4R)-4-((5-(methoxy-d3)-7-methyl-1H-indol-4-yl)oxy)-1-(2,2,2-trifluoroethyl)piperidin-3-yl) benzoic acid] came in with an IC50 of 9.13 nM.

For the compound `CCOC1CCC(Sc2c(OC)cc(C)c3[nH]ccc23)C(c2ccc(C(=O)O)cc2)C1` (single isomer, unassigned) [Example 19a-2], the IC50 worked out at 224 nM. This IC50 is about 25-fold higher than that of the compound before.

With `Cc1cc(OC(F)(F)F)c(O[C@@H]2CCN(CC(F)F)C[C@H]2c2ccc(C(=O)O)cc2)c2cc[nH]c12` [Example 30, 4-((3R,4R)-1-(2,2-difluoroethyl)-4-((7-methyl-5-(trifluoromethoxy)-1H-indol-4-yl)oxy)piperidin-3-yl)benzoic acid], the IC50 was 72.2 nM.

As to `COc1cc(C)c2[nH]ccc2c1CN1CCN(C2CC(C(F)(F)F)C2)CC1c1ccc(C(=O)O)cc1` (racemic) [Example 10-2, (±)4-(1-((5-methoxy-7-methyl-1H-indol-4-yl)methyl)-4-(3-(trifluoromethyl)cyclobutyl)piperazin-2-yl)benzoic acid], the IC50 turned out to be 117 nM. This IC50 lies about 1.6-fold higher than the previous one.

On to `CCOC1CCC(Cc2c(OC)cc(C)c3[nH]ccc23)N(c2ccc(C(=O)O)cc2)C1` (single isomer, unassigned) [Example 32a-2, 4-(5-ethoxy-2-((5-methoxy-7-methyl-1H-indol-4-yl)methyl)piperidin-1-yl)benzoic acid], for which the IC50 was 601 nM. This IC50 lies about 5.1-fold higher than the previous one.

For `COc1cc(C)c2[nH]ccc2c1CN1CCN(CC2CC2)CC1c1ccc(C(=O)O)cc1` (racemic) [Example 4, (±)4-(4-(cyclopropylmethyl)-1-((5-methoxy-7-methyl-1H-indol-4-yl)methyl)piperazin-2-yl)benzoic acid], the IC50 is > 1000 nM.

As to `COc1cc(C)c2[nH]ccc2c1CN1CCN(CC(F)(F)F)CC1c1ccc(C(=O)O)cc1` (racemic) [Example 11-2, (±)4-(1-((5-methoxy-7-methyl-1H-indol-4-yl)methyl)-4-(2,2,2-trifluoroethyl)piperazin-2-yl) benzoic acid], the half-maximal inhibitory concentration (IC50) is 70.7 nM.

The compound `COc1cc(C)c2[nH]ccc2c1O[C@H]1CCN(CC(F)F)C[C@@H]1c1ccc(C(=O)O)cc1` [Example 13a-1, 4-((3S,4S)-1-(2,2-difluoroethyl)-4-((5-methoxy-7-methyl-1H-indol-4-yl)oxy)piperidin-3-yl)benzoic acid] yielded an IC50 of 982 nM. This IC50 is about 14-fold higher than that of the compound before.

Compound `Cc1cc(OC(F)F)c(OC2CCN(CCC(F)(F)F)CC2c2ccc(C(=O)O)cc2)c2cc[nH]c12` (single isomer, unassigned) [Example 25-2] came in with a half-maximal inhibitory concentration (IC50) of 24 nM.
